What all share (type): in vivo
Assay [1] deals with Spodoptera frugiperda. Briefly: Spodoptera frugiperda test (sprayed cabbage leaves). The following applies: mortality of caterpillars on cabbage leaves. The protocol:
(§1) Solvent: 7 parts by weight of dimethylformamide Emulsifier: 2 parts by weight of alkylaryl polyglycolether
(§2) To produce a suitable preparation of active compound, 1 part by weight of active compound is mixed with the stated amount of solvent and emulsifier, and the concentrate is diluted with emulsifier-containing water to the desired concentration.
Cabbage leaves (Brassica oleracea) are treated by being sprayed into the preparation of the active compound of the desired concentration and are infested with larvae of the fall army worm (Spodoptera frugiperda) as long as the leaves are still moist.
After the specified period of time, the mortality in % is determined. 100% means that all the caterpillars have been killed; 0% means that none of the caterpillars have been killed.

The test system of assay [2] is Nilaparvata lugens. Briefly: Nilaparvata lugens test (sprayed rice plants). The following applies: mortality of hopper larvae on rice. As for the experimental part: as §1, §2
Rice plants (Oryza sativa) are treated by being sprayed with the preparation of the active compound at the desired concentration and are infested with larvae of the Brown plant hopper (Nilaparvata lugens) as long as the leaves are still moist.
After the specified period of time, the mortality in % is determined. 100% means that all the hopper larvae have been killed; 0% means that none of the hopper larvae have been killed.

Assay [3] has as its system Phaedon cochleariae. Briefly: Phaedon cochleariae test (sprayed cabbage leaves). The following applies: mortality of beetle larvae on cabbage leaves. The protocol: as §1, §2
Cabbage leaves (Brassica oleracea) are treated by being sprayed with the preparation of the active compound at the desired concentration and are infested with larvae of the mustard beetle (Phaedon cochleariae) as long as the leaves are still moist.
After the specified period of time, the mortality in % is determined. 100% means that all the beetle larvae have been killed; 0% means that none of the beetle larvae have been killed.

Assay [4] deals with Blumeria graminis f sp. hordei. Briefly: Blumeria test (barley)/SAR 5d. The following applies: 1000 ppm, inoculated 5 days after spraying, evaluated 7 days after inoculation. The protocol: Solvent: 50 parts by weight of n,n-dimethylacetamid Emulsifier: 1 part by weight of alkylaryl polyglycol ether
To produce a suitable preparation of active compound, 1 part by weight of active compound or active compound combination is mixed with the stated amounts of solvent and emulsifier, and the concentrate is diluted with water to the desired concentration.
To test for systemic activated resistance, young plants are sprayed with the preparation of active compound or active compound combination at the stated rate of application. After the spray coating has dried on, the plants are placed in a greenhouse at a temperature of approximately 18° C. and a relative atmospheric humidity of approximately 80%.
5 days after spraying, the plants are dusted with spores of Blumeria graminis f sp. hordei. The plants then remain in a greenhouse at a temperature of approximately 18° C. and a relative atmospheric humidity of approximately 80% to promote the development of mildew pustules.
The test is evaluated 7 days after the inoculation, 1. and 2. leaf separated. 0% means an efficacy with corresponds to that of the control while an efficacy of 100% means that no disease is observed.

Molecules are shown by their SMILES.

As to `CN/C(=N\[N+](=O)[O-])NCc1cnc(Cl)s1` [Clothianidin, clothianidin], the “Efficacy in % after 6d” value in assay [1] (8 ppm) is listed as 25%; in assay [3] (0.16 ppm) it was 0%. Besides, the “Efficacy in % after 3d” value was found to be 55% in assay [2] (0.032 ppm) and 70% in assay [2] (0.8 ppm).
In the case of `CC[S+]([O-])c1c(C#N)nn(-c2c(Cl)cc(C(F)(F)F)cc2Cl)c1N` (stereo not shown) [Ethiprole, ethiprole], the “Efficacy in % after 3d” value in assay [2] (0.16 ppm) came to 0%. The Efficacy in % in assay [4] (1st leaf) and in assay [4] (2nd leaf) was 22% each time.
In the case of `N#Cc1nn(-c2c(Cl)cc(C(F)(F)F)cc2Cl)c(N)c1[S+]([O-])C(F)(F)F` (stereo not shown) [Fipronil, fipronil], the “Efficacy in % after 6d” value in assay [1] (8 ppm) is recorded as 65%; in assay [3] (0.032 ppm) it was 0%. Moreover, the “Efficacy in % after 3d” value in assay [2] (0.032 ppm) was found to be 0%; in assay [2] (20 ppm) it was 70%.
As for `N#Cc1ccccc1NC(=O)c1snc(Cl)c1Cl` [Isotianil, 3,4-dichloro-N-(2-cyanophenyl)-5-isothiazolecarboxamide], the “Efficacy in % after 6d” value in assay [1] (200 ppm) was determined as 0%.
With `N#C/N=C1\SCCN1Cc1ccc(Cl)nc1` [Thiacloprid, thiacloprid], in assay [2] (4 ppm), the “Efficacy in % after 3d” value stood at 0%.
